How the values were obtained:
[1] = Cytotoxicity against human Hs 578T cells after 6 days
BT-474 [2] = experiment: Cytotoxicity against human BT474 cells after 6 days
MIA PaCa-2 [3] = experiment: Cytotoxicity against human MIAPaCa2 cells after 6 days
MCF7 [4] = experiment: Cytotoxicity against human MCF7 cells after 6 days
MCF7 [5] = experiment: Cytotoxicity against human MCF7 cells after 24 hrs; format: functional, cell-based
[6] = Cytotoxicity against human Hs 578T cells after 24 hrs; format: functional, cell-based
MIA PaCa-2 [7] = experiment: Cytotoxicity against human MIAPaCa2 cells after 24 hrs; format: functional, cell-based
BT-474 [8] = experiment: Cytotoxicity against human BT474 cells after 24 hrs; format: functional, cell-based
[9] = Homo sapiens, Hs-578T, 6 days, read-out: IC50
[10] = Homo sapiens, BT-474, 6 days, read-out: IC50
[11] = Homo sapiens, MIA PaCa-2, 6 days, read-out: IC50
[12] = Homo sapiens, MCF7, 6 days, read-out: IC50

Row | Compound | IC50 [1, 9] [µM] | IC50 (BT-474 [2]; [10]) [µM] | IC50 (MIA PaCa-2 [3]; [11]) [µM] | IC50 (MCF7 [4]; [12]) [µM] | further results
1 | C[C@H]1OC2=C(C(=O)c3ccccc3C2=O)C1(C)C | > 10 | 4.5 | 4.6 | 5.8 | 
2 | C[C@H]1OC2=C(C(=O)c3ccc(O)cc3C2=O)C1(C)C | > 10 | 4.9 | 6.7 | 5.7 | 
3 | Cc1ccc2c(c1O)C(=O)c1ccccc1C2=O |  |  |  |  | IC50 (MCF7 [5]): Not Active; IC50 [6]: Not Active; IC50 (MIA PaCa-2 [7]): Not Active; IC50 (BT-474 [8]): Not Active
4 | COc1cc2c(cc1O)C(=O)C1=C(O[C@H](C)C1(C)C)C2=O |  |  |  |  | IC50 ([1]; hs-578t): Not Active; IC50 (BT-474 [2]; bt-474): Not Active; IC50 (MIA PaCa-2 [3]; mia paca-2): Not Active; IC50 (MCF7 [4]; mcf7): Not Active
5 | C[C@H]1OC2=C(C(=O)C(=O)c3ccccc32)C1(C)C [(3R)-DUNNIONE] | 5 | 1 | 1.9 | 2.3 | 
